From ChEMBL document CHEMBL3217712, “Improved biodistribution, pharmacokinetics and photodynamic efficacy using a new photostable sulfonamide bacteriochlorin” (Medchemcomm, 2012)

Legend:
Design in all cases: dose 10 mg/kg, route intraperitoneal
[1] = Biodistribution in mouse Cloudman S91 tumor bearing DBA2 mouse spleen at 10 mg/kg, ip after 12 hrs; type: ADME, organism-based; conditions: read-out: Drug uptake
[2] = Biodistribution in mouse Cloudman S91 tumor bearing DBA2 mouse liver at 10 mg/kg, ip after 12 hrs; type: ADME, organism-based; conditions: read-out: Drug uptake
[3] = Biodistribution in mouse Cloudman S91 tumor bearing DBA2 mouse kidneys at 10 mg/kg, ip after 12 hrs; type: ADME, organism-based; conditions: kidney, read-out: Drug uptake
[4] = Biodistribution in mouse Cloudman S91 tumor bearing DBA2 mouse intestine at 10 mg/kg, ip after 12 hrs; type: ADME, organism-based; conditions: read-out: Drug uptake
[5] = Biodistribution in mouse Cloudman S91 tumor bearing DBA2 mouse heart at 10 mg/kg, ip after 12 hrs; type: ADME, organism-based; conditions: read-out: Drug uptake
[6] = Biodistribution in mouse Cloudman S91 tumor bearing DBA2 mouse lungs at 10 mg/kg, ip after 12 hrs; type: ADME, organism-based; conditions: lung, read-out: Drug uptake
[7] = Biodistribution in mouse Cloudman S91 tumor bearing DBA2 mouse blood at 10 mg/kg, ip after 24 hrs; type: ADME, organism-based; conditions: read-out: Drug uptake
[8] = Biodistribution in mouse Cloudman S91 tumor bearing DBA2 mouse tumour at 10 mg/kg, ip after 24 hrs; type: ADME, organism-based, Neoplasm; conditions: read-out: Drug uptake
[9] = Biodistribution in mouse Cloudman S91 tumor bearing DBA2 mouse skin at 10 mg/kg, ip after 24 hrs; type: ADME, organism-based, Zone of skin; conditions: read-out: Drug uptake
[10] = Biodistribution in mouse Cloudman S91 tumor bearing DBA2 mouse muscle at 10 mg/kg, ip after 24 hrs; type: ADME, organism-based, Muscle tissue; conditions: read-out: Drug uptake
[11] = Biodistribution in mouse Cloudman S91 tumor bearing DBA2 mouse muscle at 10 mg/kg, ip after 12 hrs; type: ADME, organism-based, Muscle tissue; conditions: read-out: Drug uptake
[12] = Biodistribution in mouse Cloudman S91 tumor bearing DBA2 mouse spleen at 10 mg/kg, ip after 24 hrs; type: ADME, organism-based; conditions: read-out: Drug uptake
[13] = Biodistribution in mouse Cloudman S91 tumor bearing DBA2 mouse liver at 10 mg/kg, ip after 24 hrs; type: ADME, organism-based; conditions: read-out: Drug uptake
[14] = Biodistribution in mouse Cloudman S91 tumor bearing DBA2 mouse kidneys at 10 mg/kg, ip after 24 hrs; type: ADME, organism-based; conditions: kidney, read-out: Drug uptake
[15] = Biodistribution in mouse Cloudman S91 tumor bearing DBA2 mouse intestine at 10 mg/kg, ip after 24 hrs; type: ADME, organism-based; conditions: read-out: Drug uptake
[16] = Biodistribution in mouse Cloudman S91 tumor bearing DBA2 mouse heart at 10 mg/kg, ip after 24 hrs; type: ADME, organism-based; conditions: read-out: Drug uptake
[17] = Biodistribution in mouse Cloudman S91 tumor bearing DBA2 mouse lungs at 10 mg/kg, ip after 24 hrs; type: ADME, organism-based; conditions: lung, read-out: Drug uptake
[18] = Biodistribution in mouse Cloudman S91 tumor bearing DBA2 mouse blood at 10 mg/kg, ip after 48 hrs; type: ADME, organism-based; conditions: read-out: Drug uptake
[19] = Biodistribution in mouse Cloudman S91 tumor bearing DBA2 mouse tumour at 10 mg/kg, ip after 48 hrs; type: ADME, organism-based, Neoplasm; conditions: read-out: Drug uptake
[20] = Biodistribution in mouse Cloudman S91 tumor bearing DBA2 mouse skin at 10 mg/kg, ip after 48 hrs; type: ADME, organism-based, Zone of skin; conditions: read-out: Drug uptake
[21] = Biodistribution in mouse Cloudman S91 tumor bearing DBA2 mouse muscle at 10 mg/kg, ip after 48 hrs; type: ADME, organism-based, Muscle tissue; conditions: read-out: Drug uptake
[22] = Biodistribution in mouse Cloudman S91 tumor bearing DBA2 mouse spleen at 10 mg/kg, ip after 48 hrs; type: ADME, organism-based; conditions: read-out: Drug uptake
[23] = Biodistribution in mouse Cloudman S91 tumor bearing DBA2 mouse liver at 10 mg/kg, ip after 48 hrs; type: ADME, organism-based; conditions: read-out: Drug uptake
[24] = Biodistribution in mouse Cloudman S91 tumor bearing DBA2 mouse kidneys at 10 mg/kg, ip after 48 hrs; type: ADME, organism-based; conditions: kidney, read-out: Drug uptake
[25] = Biodistribution in mouse Cloudman S91 tumor bearing DBA2 mouse intestine at 10 mg/kg, ip after 48 hrs; type: ADME, organism-based; conditions: read-out: Drug uptake
[26] = Biodistribution in mouse Cloudman S91 tumor bearing DBA2 mouse heart at 10 mg/kg, ip after 48 hrs; type: ADME, organism-based; conditions: read-out: Drug uptake
[27] = Biodistribution in mouse Cloudman S91 tumor bearing DBA2 mouse lungs at 10 mg/kg, ip after 48 hrs; type: ADME, organism-based; conditions: lung, read-out: Drug uptake
[28] = Biodistribution in mouse Cloudman S91 tumor bearing DBA2 mouse blood at 10 mg/kg, ip after 72 hrs; type: ADME, organism-based; conditions: read-out: Drug uptake
[29] = Biodistribution in mouse Cloudman S91 tumor bearing DBA2 mouse tumour at 10 mg/kg, ip after 72 hrs; type: ADME, organism-based, Neoplasm; conditions: read-out: Drug uptake
[30] = Biodistribution in mouse Cloudman S91 tumor bearing DBA2 mouse skin at 10 mg/kg, ip after 72 hrs; type: ADME, organism-based, Zone of skin; conditions: read-out: Drug uptake
[31] = Biodistribution in mouse Cloudman S91 tumor bearing DBA2 mouse muscle at 10 mg/kg, ip after 72 hrs; type: ADME, organism-based, Muscle tissue; conditions: read-out: Drug uptake
[32] = Biodistribution in mouse Cloudman S91 tumor bearing DBA2 mouse spleen at 10 mg/kg, ip after 72 hrs; type: ADME, organism-based; conditions: read-out: Drug uptake
[33] = Biodistribution in mouse Cloudman S91 tumor bearing DBA2 mouse liver at 10 mg/kg, ip after 72 hrs; type: ADME, organism-based; conditions: read-out: Drug uptake
[34] = Biodistribution in mouse Cloudman S91 tumor bearing DBA2 mouse kidneys at 10 mg/kg, ip after 72 hrs; type: ADME, organism-based; conditions: kidney, read-out: Drug uptake
[35] = Biodistribution in mouse Cloudman S91 tumor bearing DBA2 mouse intestine at 10 mg/kg, ip after 72 hrs; type: ADME, organism-based; conditions: read-out: Drug uptake
[36] = Biodistribution in mouse Cloudman S91 tumor bearing DBA2 mouse heart at 10 mg/kg, ip after 72 hrs; type: ADME, organism-based; conditions: read-out: Drug uptake
[37] = Biodistribution in mouse Cloudman S91 tumor bearing DBA2 mouse lungs at 10 mg/kg, ip after 72 hrs; type: ADME, organism-based; conditions: lung, read-out: Drug uptake

Q: For `CCNS(=O)(=O)c1ccc(Cl)c(-c2c3nc(c(-c4c(Cl)ccc(S(=O)(=O)NCC)c4Cl)c4ccc([nH]4)c(-c4c(Cl)ccc(S(=O)(=O)NCC)c4Cl)c4nc(c(-c5c(Cl)ccc(S(=O)(=O)NCC)c5Cl)c5ccc2[nH]5)CC4)CC3)c1Cl`, which concentration at 12 h [1] is on record?
A: 6100 ng/g

Q: And the concentration at 12 h [2]?
A: 4000 ng/g

Q: What about the concentration at 12 h [3] of the same compound?
A: 300 ng/g

Q: What about the concentration at 12 h [4] of the same compound?
A: 1200 ng/g

Q: What about the concentration at 12 h [5] of the same compound?
A: 200 ng/g

Q: What about the concentration at 12 h [6] of the same compound?
A: 300 ng/g

Q: And the concentration at 24 h [7]?
A: 230 ng/g

Q: And the concentration at 24 h [8]?
A: 960 ng/g

Q: What about the concentration at 24 h [9] of the same compound?
A: 170 ng/g

Q: What about the concentration at 24 h [10] of the same compound?
A: 130 ng/g

Q: What about the concentration at 12 h [11] of the same compound?
A: 120 ng/g

Q: What about the concentration at 24 h [12] of the same compound?
A: 10000 ng/g

Q: And the concentration at 24 h [13]?
A: 2000 ng/g

Q: What about the concentration at 24 h [14] of the same compound?
A: 500 ng/g

Q: What about the concentration at 24 h [15] of the same compound?
A: 750 ng/g

Q: And the concentration at 24 h [16]?
A: 800 ng/g

Q: What about the concentration at 24 h [17] of the same compound?
A: 850 ng/g

Q: And the concentration at 48 h [18]?
A: 130 ng/g

Q: What about the concentration at 48 h [19] of the same compound?
A: 320 ng/g

Q: What about the concentration at 48 h [20] of the same compound?
A: 80 ng/g

Q: What about the concentration at 48 h [21] of the same compound?
A: 70 ng/g

Q: What about the concentration at 48 h [22] of the same compound?
A: 7300 ng/g

Q: And the concentration at 48 h [23]?
A: 2400 ng/g

Q: What about the concentration at 48 h [24] of the same compound?
A: 400 ng/g

Q: What about the concentration at 48 h [25] of the same compound?
A: 900 ng/g

Q: And the concentration at 48 h [26]?
A: 300 ng/g

Q: And the concentration at 48 h [27]?
A: 500 ng/g

Q: What about the concentration at 72 h [28] of the same compound?
A: 50 ng/g

Q: What about the concentration at 72 h [29] of the same compound?
A: 150 ng/g

Q: What about the concentration at 72 h [30] of the same compound?
A: 19 ng/g

Q: And the concentration at 72 h [31]?
A: 15 ng/g

Q: What about the concentration at 72 h [32] of the same compound?
A: 3000 ng/g

Q: And the concentration at 72 h [33]?
A: 630 ng/g

Q: What about the concentration at 72 h [34] of the same compound?
A: 200 ng/g

Q: What about the concentration at 72 h [35] of the same compound?
A: 300 ng/g

Q: What about the concentration at 72 h [36] of the same compound?
A: 200 ng/g

Q: And the concentration at 72 h [37]?
A: 300 ng/g
